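Interpolation was linear, between the two tested concentrations surrounding the appropriate level; five concentrations were tested over 48 hours in 96-well plates. GI50: concentration for 50% inhibition of growth.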 Calls of active or inactive are those of the source. No stated cut-off is given here; in the data, active = GI50 up to about 1.1 µM and inactive = higher.
How the values were obtained:
Assay in all cases: NCI anticancer screen, dose series, 48 h
[1] = tested on: DLD-1
[2] = tested on: DMS-273
[3] = tested on: HOP-18
[4] = tested on: KM-20L2
[5] = tested on: LXFL 529
[6] = tested on: M19-MEL
[7] = tested on: RXF 631
[8] = tested on: SNB-78
[9] = tested on: XF498

Row | Structure (SMILES) | GI50 [1] | GI50 [2] | GI50 [3] | GI50 [4] | GI50 [5] | GI50 [6] | GI50 [7] | GI50 [8] | GI50 [9]
1 | O=C(O)/C(=C\c1ccccc1Cl)S(=O)(=O)c1ccccc1 | > 100 µM (inactive) | > 100 µM (inactive) | > 100 µM (inactive) | > 100 µM (inactive) | > 100 µM (inactive) | > 100 µM (inactive) | > 100 µM (inactive) | > 100 µM (inactive) | 
2 | c1ccc2c(OCCSCCCCCCCCCCSCCOc3cccc4ccccc34)cccc2c1 | > 100 µM (inactive) | > 100 µM (inactive) | > 100 µM (inactive) | > 100 µM (inactive) |  | > 100 µM (inactive) |  | > 100 µM (inactive) | 
3 | CCOC(=O)/C(=C/c1ccc(C(=O)OC)cc1)N(CC)CC |  |  |  | 31.2 µM (inactive) | 50.6 µM (inactive) | 51.1 µM (inactive) |  | 24.4 µM (inactive) | 
4 | O=C(NOC(=O)c1ccc([N+](=O)[O-])cc1)c1ccc(Cl)cc1 | 38.7 µM (inactive) |  | 2.9 µM (inactive) | 97.1 µM (inactive) | 17.9 µM (inactive) | > 100 µM (inactive) | > 100 µM (inactive) | 16.6 µM (inactive) | 85.9 µM (inactive)
5 | Cc1cc2c(C=O)n[nH]c2c(C#N)c1C | > 100 µM (inactive) | 43.1 µM (inactive) |  | 65.9 µM (inactive) | 34.7 µM (inactive) | 60.8 µM (inactive) | 58.5 µM (inactive) | 95.3 µM (inactive) | 
6 | CC1(C)C(=NNC(=S)NN)C(C)(C)C1=NNC(=S)NN | > 100 µM (inactive) |  |  | > 100 µM (inactive) |  | > 100 µM (inactive) | > 100 µM (inactive) |  | > 100 µM (inactive)
7 | O=C1c2ccccc2C(=O)N1C/C=N/NS(=O)(=O)c1ccc(Cl)cc1 | > 100 µM (inactive) | > 100 µM (inactive) |  | > 100 µM (inactive) | > 100 µM (inactive) | > 100 µM (inactive) | > 100 µM (inactive) |  | > 100 µM (inactive)
8 | Clc1ccc(-c2c(C3=NCCN3)nnn2-c2ccc(Cl)cc2)cc1 | 27.9 µM (inactive) | 42.2 µM (inactive) | > 100 µM (inactive) | 15.7 µM (inactive) | 29.4 µM (inactive) | 16.6 µM (inactive) |  | 18.8 µM (inactive) | 15 µM (inactive)
9 | CCN(CC)C(=O)c1cccc2c(OC)ccc(OC)c12 | > 100 µM (inactive) | > 100 µM (inactive) | > 100 µM (inactive) | > 100 µM (inactive) | > 100 µM (inactive) | > 100 µM (inactive) |  |  | 
10 | CCOC(=O)COc1cccc2c1C(=O)CCO2 | > 100 µM (inactive) | > 100 µM (inactive) |  | > 100 µM (inactive) | > 100 µM (inactive) | > 100 µM (inactive) | > 100 µM (inactive) | > 100 µM (inactive) | > 100 µM (inactive)
11 | O=C(CC(=O)c1cccc([N+](=O)[O-])c1)C(=O)Nc1ccccc1 | > 100 µM (inactive) | > 100 µM (inactive) | > 100 µM (inactive) | > 100 µM (inactive) | > 100 µM (inactive) | > 100 µM (inactive) | > 100 µM (inactive) | > 100 µM (inactive) | > 100 µM (inactive)
12 | CN[C@@H](C)[C@@H](N)c1ccccc1 | > 100 µM (inactive) | > 100 µM (inactive) | > 100 µM (inactive) |  | > 100 µM (inactive) |  | > 100 µM (inactive) | > 100 µM (inactive) | 
13 | CC/C(=N/O)c1ccc2[nH]c3c(C)cc([N+](=O)[O-])c(C)c3c2c1 | 16.2 µM (inactive) | 19.4 µM (inactive) | > 100 µM (inactive) |  |  | 50.2 µM (inactive) |  | > 100 µM (inactive) | 50.2 µM (inactive)
14 | CC#CC(OCC)(OCC)OCC | > 100 µM (inactive) | 20.6 µM (inactive) | > 100 µM (inactive) | > 100 µM (inactive) | > 100 µM (inactive) | > 100 µM (inactive) |  | > 100 µM (inactive) | > 100 µM (inactive)
15 | COc1cccc(C2N3CCCCC3[C@@H]3c4[nH]c5ccccc5c4CCN23)c1OC (stereo partly drawn) | 16.9 µM (inactive) | 16 µM (inactive) | 17 µM (inactive) | 14.3 µM (inactive) | 15.2 µM (inactive) | 15.9 µM (inactive) | 16.4 µM (inactive) | 15.7 µM (inactive) | 15.2 µM (inactive)
16 | N#CCCN(c1ccc(/C=N/c2ccccc2Cl)cc1)S(=O)(=O)c1ccccc1 | > 100 µM (inactive) | > 100 µM (inactive) | > 100 µM (inactive) | > 100 µM (inactive) | > 100 µM (inactive) | > 100 µM (inactive) | > 100 µM (inactive) | > 100 µM (inactive) | > 100 µM (inactive)
17 | CC1=C(C(=O)Nc2ccccc2C)C(c2ccccc2O)C(C(=O)Nc2ccccc2C)=C(C)N1 | 16.8 µM (inactive) | 17.7 µM (inactive) | 17.9 µM (inactive) | 20.2 µM (inactive) | 20.1 µM (inactive) | 21 µM (inactive) |  | 29.5 µM (inactive) | 22.3 µM (inactive)
18 | Nc1nc2sc3ccccc3c(=O)n2n1 | > 100 µM (inactive) | > 100 µM (inactive) | > 100 µM (inactive) | > 100 µM (inactive) | > 100 µM (inactive) |  |  | > 100 µM (inactive) | > 100 µM (inactive)
19 | Nc1ncnc2c1ncn2C1OC(CSC(F)(F)F)C(O)C1O (stereo not drawn) | > 100 µM (inactive) | > 100 µM (inactive) | > 100 µM (inactive) | > 100 µM (inactive) | > 100 µM (inactive) | > 100 µM (inactive) |  | > 100 µM (inactive) | 
20 | N#CC(Sc1ccccc1)C(N)=O (stereo not drawn) | > 100 µM (inactive) | > 100 µM (inactive) | > 100 µM (inactive) | > 100 µM (inactive) | > 100 µM (inactive) | > 100 µM (inactive) | > 100 µM (inactive) | > 100 µM (inactive) | > 100 µM (inactive)
21 | O=C(O)/C=C/c1ccc(O)c(O)c1 [CAFFEIC ACID] | > 100 µM (inactive) | > 100 µM (inactive) | > 100 µM (inactive) | > 100 µM (inactive) | > 100 µM (inactive) | > 100 µM (inactive) | > 100 µM (inactive) | > 100 µM (inactive) | 
22 | CC(C)(C)OC(=O)N[C@H]1CC2(C=C(Cl)C(=O)C(Cl)=C2)OC1=O | 3.66 µM (inactive) | 18.2 µM (inactive) | 16.5 µM (inactive) | 20.4 µM (inactive) | 11.4 µM (inactive) | 17.1 µM (inactive) | 16.6 µM (inactive) | 19.6 µM (inactive) | 19.3 µM (inactive)
23 | C/C(=C\Cc1cc(O)ccc1O)CCc1c(C)c(O)c(O)c(C=O)c1C [PANICEIN C] | 21.1 µM (inactive) | 27.5 µM (inactive) | 18.7 µM (inactive) | 37.5 µM (inactive) | 9.64 µM (inactive) | 17.7 µM (inactive) |  |  | 20 µM (inactive)
24 | CCOC(=O)NC1C2CC(=O)OC(O2)C1OC(C)=O (stereo not drawn) | 90.6 µM (inactive) | > 100 µM (inactive) | > 100 µM (inactive) | > 100 µM (inactive) | > 100 µM (inactive) | > 100 µM (inactive) | > 100 µM (inactive) | > 100 µM (inactive) | 
25 | [N-]=[N+]=NCC(O)Cn1cnc2c(NC(=O)c3ccccc3)ncnc21 (stereo not drawn) | > 100 µM (inactive) | 64.4 µM (inactive) | > 100 µM (inactive) | > 100 µM (inactive) | > 100 µM (inactive) | > 100 µM (inactive) |  | > 100 µM (inactive) | > 100 µM (inactive)
26 | COc1ccc2cc3n(c2c1)CCc1cc(OC)c(OC)cc1-3 | > 100 µM (inactive) | > 100 µM (inactive) | > 100 µM (inactive) | > 100 µM (inactive) | > 100 µM (inactive) | > 100 µM (inactive) | > 100 µM (inactive) | > 100 µM (inactive) | > 100 µM (inactive)
27 | COc1cccc(-c2cc(O)c3cc4c(cc3n2)OCO4)c1 | 0.126 µM (active) | 0.147 µM (active) | 0.638 µM (active) | 0.19 µM (active) | 0.0598 µM (active) | 0.128 µM (active) | 0.442 µM (active) | 0.195 µM (active) | 0.042 µM (active)
28 | O=C(CCc1cc(-c2ccccc2)[nH]c(=S)n1)Nc1ccccc1[N+](=O)[O-] |  | > 100 µM (inactive) | > 100 µM (inactive) | > 100 µM (inactive) | > 100 µM (inactive) | > 100 µM (inactive) | > 100 µM (inactive) | > 100 µM (inactive) | 42 µM (inactive)
29 | C[C@@H](NC1CCCC[C@H]1O)c1ccccc1 (stereo partly drawn) | > 100 µM (inactive) | > 100 µM (inactive) | > 100 µM (inactive) | > 100 µM (inactive) |  | > 100 µM (inactive) |  | > 100 µM (inactive) | > 100 µM (inactive)
